Source: patent US12486489B2, “Culture medium for testing drug resistance of H.pylori as well as preparation method and use thereof” (priority 2022, dated 2025)
Like-named read-outs stand apart in the source and are kept apart here.

Experiments:
[1] = test system: clinical H. pylori strain; test: Drug resistance testing of clinical specimens on characteristic culture medium (discoloration after 36 hours); type: cell-based, Helicobacter pylori
Experimental: The characteristic culture media (A, B, C, D, E) are cultivated at a constant temperature of 37° C. for 36 hours in a three gas incubator. The characteristic culture media are removed and placed in a natural environment for 30 minutes to observe whether there are discolorations at the point of the culture medium where the specimen is dropped in. […] Another 100 μL of the specimen is taken and coated on Columbia solid culture medium and cultivated in a three gas incubator at a constant temperature of 37° C. for 3 days to 5 days. The number of colonies on the plate is counted to determine the initial inoculation amount. The micro dilution method is adopted to test the MIC of clinical specimen H. pylori, the test is meaningful only when there is no bacterial growth in the negative control well without bacteria and there is bacterial growth in the positive well with bacteria but without antibiotics.
(1) Transfer liquid preparation: after sterilization and cooling, BHI culture medium is added with 10% calf serum, followed by 30% glycerol to prepare H. pylori preservation solution. On this basis, 1% H. pylori selective additive is added to prepare the transfer liquid. 1 mL of transfer solution is taken into a sterile EP tube, and 6-8 sterilized small steel balls are poured into the EP tube for the subsequent use.
(3) Specimen acquisition: a biopsy tissue group is obtained from the gastric antrum and a small curvature side of the gastric body through a gastroscopy biopsy passage and placed into an EP tube (strictly sterile operation). The biopsy tissue is placed on the ice surface and transferred as soon as possible (within 2 hours) to complete the subsequent steps.
(4) Preparation of bacterial solution containing tissue: the EP tube containing tissue is placed in a homogenizer at 300 hz and crushed for 5 minutes, transferred to another EP, centrifuged at 12000 rpm for 2 minutes, the supernatant is discarded, BHI is resuspended to 200 μL, and a bacterial suspension is prepared for the subsequent use.
(5) Inoculation of bacterial solution: 10 μL of bacterial solution is taken and added dropwise to the characteristic culture medium (5 pieces in total). The characteristic culture medium is removed after cultivating in a three gas incubator at 37° C. for 36 hours, and the results are determined after leaving for 30 minutes; another 100 μL is taken and coated onto Colombian culture medium for the traditional bacterial culture.

[2] = test system: H. pylori; settings: bacterial count 1×10^6 CFU/mL; cited from earlier work
[3] = test system: H. pylori; test: Verification of resistance breakpoint: growth of laboratory strains on Columbia solid culture medium with added antibiotics, 72 hours; type: cell-based, Helicobacter pylori
[4] = test system: H. pylori; test: MIC of laboratory H. pylori strains by micro dilution method; type: cell-based; settings: Helicobacter pylori
[5] = test system: clinical H. pylori strain; test: MIC of clinical H. pylori strains by micro dilution method; type: cell-based; settings: Helicobacter pylori, 72 h

CC[C@H]1OC(=O)[C@H](C)[C@@H](O[C@H]2C[C@@](C)(OC)[C@@H](O)[C@H](C)O2)[C@H](C)[C@@H](O[C@@H]2O[C@H](C)C[C@H](N(C)C)[C@H]2O)[C@](C)(OC)C[C@@H](C)C(=O)[C@H](C)[C@@H](O)[C@]1(C)O [Clarithromycin, clarithromycin]
drug resistance determined on characteristic culture medium ([1]; clinical H. pylori strain FY-31): sensitive | drug resistance determined on characteristic culture medium ([1]; clinical H. pylori strain FY-43): sensitive | drug resistance determined on characteristic culture medium ([1]; clinical H. pylori strain FY-47): sensitive | drug resistance determined on characteristic culture medium ([1]; clinical H. pylori strain FY-52): sensitive | resistance breakpoints of H. pylori according to CLSI guidelines [2]: 2 µg/mL | optimal concentration for adding antibiotics ([3]; conclusion of breakpoint verification): 0.5 µg/mL | growth of sensitive strains ([3]; levofloxacin 0.5, clarithromycin 0.5, metronidazole 4, amoxicillin 0.5 μg/mL): no sensitive strain grows | growth of bacterial ([3]; strain 159, antibiotic 0.25 μg/mL): + | growth of bacterial ([3]; strain 159, antibiotic 0.5 μg/mL): + | growth of bacterial ([3]; strain 159, antibiotic 1 μg/mL): − | growth of bacterial ([3]; strain 161, antibiotic 0.25 μg/mL): + | growth of bacterial ([3]; strain 161, antibiotic 0.5 μg/mL): + | growth of bacterial ([3]; strain 161, antibiotic 1 μg/mL): − | growth of bacterial ([3]; strain 162, antibiotic 0.25 μg/mL): + | growth of bacterial ([3]; strain 162, antibiotic 0.5 μg/mL): + | growth of bacterial ([3]; strain 162, antibiotic 1 μg/mL): − | growth of bacterial ([3]; strain 163, antibiotic 0.25 μg/mL): − | growth of bacterial ([3]; strain 163, antibiotic 0.5 μg/mL): − | growth of bacterial ([3]; strain 163, antibiotic 1 μg/mL): − | growth of bacterial ([3]; strain 286, antibiotic 0.25 μg/mL): + | growth of bacterial ([3]; strain 286, antibiotic 0.5 μg/mL): + | growth of bacterial ([3]; strain 286, antibiotic 1 μg/mL): − | growth of bacterial ([3]; strain 287, antibiotic 0.25 μg/mL): + | growth of bacterial ([3]; strain 287, antibiotic 0.5 μg/mL): + | growth of bacterial ([3]; strain 287, antibiotic 1 μg/mL): − | growth of bacterial ([3]; strain 289, antibiotic 0.25 μg/mL): + | growth of bacterial ([3]; strain 289, antibiotic 0.5 μg/mL): + | growth of bacterial ([3]; strain 289, antibiotic 1 μg/mL): + | growth of bacterial ([3]; strain 290, antibiotic 0.25 μg/mL): + | growth of bacterial ([3]; strain 290, antibiotic 0.5 μg/mL): + | growth of bacterial ([3]; strain 290, antibiotic 1 μg/mL): − | growth of bacterial ([3]; strain 26695, antibiotic 0.25 μg/mL): + | growth of bacterial ([3]; strain 26695, antibiotic 0.5 μg/mL): − | growth of bacterial ([3]; strain 26695, antibiotic 1 μg/mL): − | growth of bacterial ([3]; strain G27, antibiotic 0.25 μg/mL): + | growth of bacterial ([3]; strain G27, antibiotic 0.5 μg/mL): − | growth of bacterial ([3]; strain G27, antibiotic 1 μg/mL): − | MIC ([4]; read-out: MICs, standard sensitive strains G27 and 26695, bacterial count 1×10^6 CFU/mL): 0.0312 to 0.0625 µg/mL | MIC ([4]; read-out: minimum inhibitory concentration (MIC), strain 159, bacterial count 10^4 CFU/mL): 0.0312 µg/mL | MIC ([4]; read-out: minimum inhibitory concentration (MIC), strain 161, bacterial count 10^4 CFU/mL): 0.5 µg/mL | MIC ([4]; read-out: minimum inhibitory concentration (MIC), strain 161, bacterial count 10^6 CFU/mL (first line of the strain)): 2 µg/mL | MIC ([4]; read-out: minimum inhibitory concentration (MIC), strain 161, bacterial count 10^6 CFU/mL (second line of the strain)): 1 µg/mL | MIC ([4]; read-out: minimum inhibitory concentration (MIC), strain 162, bacterial count 10^4 CFU/mL): 1 µg/mL | MIC ([4]; read-out: minimum inhibitory concentration (MIC), strain 162, bacterial count 10^6 CFU/mL (first line of the strain)): 8 µg/mL | MIC ([4]; read-out: minimum inhibitory concentration (MIC), strain 162, bacterial count 10^6 CFU/mL (second line of the strain)): 4 µg/mL | MIC ([4]; read-out: minimum inhibitory concentration (MIC), strain 163, bacterial count 10^6 CFU/mL (first line of the strain)): 0.5 µg/mL | MIC ([4]; read-out: minimum inhibitory concentration (MIC), strain 163, bacterial count 10^6 CFU/mL (second line of the strain)): 0.25 µg/mL | MIC ([4]; read-out: minimum inhibitory concentration (MIC), strain 286, bacterial count 10^4 CFU/mL): 1 µg/mL | MIC ([4]; read-out: minimum inhibitory concentration (MIC), strain 286, bacterial count 10^6 CFU/mL (first line of the strain)): 8 µg/mL | MIC ([4]; read-out: minimum inhibitory concentration (MIC), strain 286, bacterial count 10^6 CFU/mL (second line of the strain)): 4 µg/mL | MIC ([4]; read-out: minimum inhibitory concentration (MIC), strain 287, bacterial count 10^4 CFU/mL): 8 µg/mL | MIC ([4]; read-out: minimum inhibitory concentration (MIC), strain 287, bacterial count 10^6 CFU/mL (first line of the strain)): 4 µg/mL | MIC ([4]; read-out: minimum inhibitory concentration (MIC), strain 287, bacterial count 10^6 CFU/mL (second line of the strain)): 2 µg/mL | MIC ([4]; read-out: minimum inhibitory concentration (MIC), strain 289, bacterial count 10^4 CFU/mL): 2 µg/mL | MIC ([4]; read-out: minimum inhibitory concentration (MIC), strain 289, bacterial count 10^6 CFU/mL (first line of the strain)): 32 µg/mL | MIC ([4]; read-out: minimum inhibitory concentration (MIC), strain 289, bacterial count 10^6 CFU/mL (second line of the strain)): 8 µg/mL | MIC ([4]; read-out: minimum inhibitory concentration (MIC), strain 290, bacterial count 10^4 CFU/mL): 4 µg/mL | MIC ([4]; read-out: minimum inhibitory concentration (MIC), strain 290, bacterial count 10^6 CFU/mL (first line of the strain)): 16 µg/mL | MIC ([4]; read-out: minimum inhibitory concentration (MIC), strain 290, bacterial count 10^6 CFU/mL (second line of the strain)): 4 µg/mL | MIC ([4]; resistant strains 159, 161, 162, 163, 286, 287, 289, and 290, bacterial count 1×10^6 CFU/mL, read-out: MICs): 0.0625 to 8 µg/mL | MIC ([4]; strain 159, bacterial count 10^6 CFU/mL (first line of the strain), read-out: minimum inhibitory concentration (MIC)): 0.125 µg/mL | MIC ([4]; strain 159, bacterial count 10^6 CFU/mL (second line of the strain), read-out: minimum inhibitory concentration (MIC)): 0.0625 µg/mL | MIC ([4]; strain 163, bacterial count 10^4 CFU/mL, read-out: minimum inhibitory concentration (MIC)): 0.125 µg/mL | MIC ([4]; strain 26695, bacterial count 10^6 CFU/mL (first line of the strain), read-out: minimum inhibitory concentration (MIC)): 0.125 µg/mL | MIC ([4]; strain 26695, bacterial count 10^6 CFU/mL (second line of the strain), read-out: minimum inhibitory concentration (MIC)): 0.0625 µg/mL | MIC ([4]; strain G27, bacterial count 10^4 CFU/mL, read-out: minimum inhibitory concentration (MIC)): 0.0156 µg/mL | MIC ([4]; strain G27, bacterial count 10^6 CFU/mL (first line of the strain), read-out: minimum inhibitory concentration (MIC)): 0.0625 µg/mL | MIC ([4]; strain G27, bacterial count 10^6 CFU/mL (second line of the strain), read-out: minimum inhibitory concentration (MIC)): 0.0312 µg/mL | MIC [5]: 0.125 µg/mL | MIC ([5]; clinical strain FY-31, approximately 1.0×10^6 CFU/mL per well, 72 hours, read-out: MIC): 0.0625 µg/mL | MIC ([5]; clinical strain FY-47, approximately 1.0×10^6 CFU/mL per well, 72 hours, read-out: MIC): 0.0625 µg/mL | MIC ([5]; clinical strain FY-52, approximately 1.0×10^6 CFU/mL per well, 72 hours, read-out: MIC): 0.25 µg/mL
